From US20080039461A1, “Treatment of pain by inhibition of p38 map kinase” (priority 2002, published 2008)

Assays:
Assay type in all cases: in vivo, rat
[1] = system: NMDA-induced hyperalgesia; test: hyperalgesia induced by intrathecal NMDA; conditions: IT NMDA 0.3 μg; MK801 10 μg, IT SD 3-60 μg, IT SB 1-30 μg, SA 10 μg
Description: (§1) Male Sprague-Dawley rats (300-350 g) were implanted under isoflurane anesthesia with lumbar polyethylene (PE-10) catheters according to a modified method originally described in Physiol. Behav. 17, 1031 (1976). […] IT saline and 5% DMSO alone had no effect on behavior or protein expression/phosphorylation.

[2] = system: thermal hyperalgesia induced by IT sP; test: thermal hyperalgesia evoked by intrathecal substance P; conditions: intrathecal pretreatment (-10 min); sP 30 nmol/10 μL
Method: (The inhibitory activity of SD for p38 alpha and p38 beta was evaluated with an assay using recombinant (E. coli) human enzymes and myelin basic protein as a substrate by the methods of Clerk and Kumar respectively. See A. Clerk, P. […]. Sugden, FEBS Lett 426, 93-6. (1998) and S. Kumar, et al., Biochem Biophys Res Commun 235, 533-8. (1997).
as §1

[3] = system: carrageenan-induced thermal hyperalgesia; test: carrageenan-induced thermal hyperalgesia (Hargreaves-type device)
Method: Hyperalgesia was induced in the rat's right hindpaw by intraplantar injection of carrageenan (2 mg in 0.1 ml of a […] solution (weight/volume) in physiological saline). To assess the thermally evoked paw withdrawal time, a device modeled after that described by Hargreaves (1988) was used. See Hargreaves K, Dubner R, Brown F, Flores C, Joris J. A new and sensitive method for measuring thermal nociception in cutaneous hyperalgesia, Pain, 32, 77-88 (1988). The device consisted of a glass surface on top of which the rats were placed. The glass surface was heated by a focused projection bulb below the glass surface. The first sign of discomfort is usually expressed as an attempt to sit up and lick the forepaws by the experimental animal. This response indicates a threshold of pain under the predetermined conditions. Dancing and jumping about by an undrugged animal is an indicator of unbearable pain; whereas drugged animals more commonly withdraw the hind paws and keep them close to their abdomen. A timer was actuated with the light source and latency defined as the time required for the paw to be withdrawn from the glass surface. See Dirig D M, Isakson P C, and Yaksh T L. J Pharmacol Exp Ther., 285, 1031-8 (1998).

[4] = system: formalin-induced flinching behavior; test: formalin-induced flinching (paw formalin model); conditions: intrathecal pre-treatment (-10 min)
Method: An evaluation was conducted to determine presence or lack thereof for an afferent-mediated induction of phosphorylated (activated) spinal p38 MAPK. A formalin mediated hyperalgesia model was utilized to conduct the evaluation. (In the formalin model, a standard dose of formalin is injected into the rat paw, and flexions of the paw are quantitated over the following 90 minute period. A biphasic response pattern is typically observed, with numerous responses observed during the period five minutes after injection (Phase 1) and a second phase (Phase 2), which occurs during the period about 10-60 minutes following injection. The mean number of flinches per minute is recorded as a function of time. Quantitation of responses during each phase can be accomplished by calculation of area under the curve of flinches/minute.) The formalin induction model reflects several levels of processing of nociceptive information in the spinal cord. See, e.g., U.S. Pat. No. 6,166,085. […] This second phase is thought to represent a state of facilitated processing evoked by the afferent input present during phase I and to involve release of at least two substances, glutamate and a tachykinin, based on pharmacological evidence. Injection of formalin into the paw evokes an initial burst of afferent input followed by a persistent low level discharge. […]

C[S+]([O-])c1ccc(-c2nc(-c3ccncc3)c(-c3ccc(F)cc3)[nH]2)cc1 (centres unmarked) [SB, SB203580]
hyperalgesia induced by IT NMDA [1]: reversed in a dose dependent fashion
thermal hyperalgesia induced by IT sP [2]: blocked the thermal hyperalgesia induced by IT sP in a dose dependent fashion
carrageenan-induced thermal hyperalgesia ([3]; intrathecal pre-treatment (-10 min)): potent dose-dependent suppression
response latency of the uninduced paw ([3]; intrathecal, even after the highest doses): no changes
second phase of flinching behavior induced by formalin [4]: potent dose-dependent attenuation
